Data: the supplement of paper PMC10307832

Columns and labels:
Assay in all cases: relative viability (nuclei count vs DMSO), 5 days (fraction); higher = more cells survive
NCI-H2228 = tested on: NCI-H2228
How it was run: (§1)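 Lung cancer cell lines were seeded in 1536-well plates and dosed by pin tool the next day, with either a single drug or a fixed anchor-drug dose combined with five library-drug doses (not always all listed) spaced in √10 steps. Five days later, one step fixed the cells and stained their nuclei (final 0.05% Triton X-100, 1% formaldehyde, 1 ug/ml Hoechst), and nuclei were counted on 4× images. Relative viability is the nuclei count in treated wells divided by the count in vehicle wells, and each value is the median of duplicate plates.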

COR-L23 = tested on: COR-L23
How it was run: as §1

NCI-H1437 = tested on: NCI-H1437
How it was run: as §1

UMC-11 = tested on: UMC-11
How it was run: as §1

ABC-1 = tested on: ABC-1
How it was run: as §1

NCI-H1666 = tested on: NCI-H1666
How it was run: as §1

PC-3 [JPC-3] = tested on: PC-3 [JPC-3]
How it was run: as §1

NCI-H2087 = tested on: NCI-H2087
How it was run: as §1

SK-MES-1 = tested on: SK-MES-1
How it was run: as §1

LXF-289 = tested on: LXF-289
How it was run: as §1

HCC-15 = tested on: HCC-15
How it was run: as §1

LCLC-103H = tested on: LCLC-103H
How it was run: as §1

CCNC(=O)c1noc(-c2cc(C(C)C)c(O)cc2O)c1-c1ccc(CN2CCOCC2)cc1 [Luminespib] + O=C(CCCCCCC(=O)Nc1ccccc1)NO [Vorinostat] (partner 1 µM)
relative viability (NCI-H2228; first compound 0.06325 µM): 0.143 | relative viability (NCI-H2228; first compound 0.2 µM): 0.15 | relative viability (COR-L23; first compound 0.002 µM): 0.469 | relative viability (COR-L23; first compound 0.006325 µM): 0.364 | relative viability (COR-L23; first compound 0.02 µM): 0.396 | relative viability (COR-L23; first compound 0.06325 µM): 0.0788 | relative viability (COR-L23; first compound 0.2 µM): 0.0814 | relative viability (NCI-H1437; first compound 0.002 µM): 0.92 | relative viability (NCI-H1437; first compound 0.006325 µM): 0.828 | relative viability (NCI-H1437; first compound 0.02 µM): 0.82 | relative viability (NCI-H1437; first compound 0.06325 µM): 0.601 | relative viability (NCI-H1437; first compound 0.2 µM): 0.218 | relative viability (UMC-11; first compound 0.002 µM): 0.393 | relative viability (UMC-11; first compound 0.006325 µM): 0.402 | relative viability (UMC-11; first compound 0.02 µM): 0.345 | relative viability (UMC-11; first compound 0.06325 µM): 0.302 | relative viability (UMC-11; first compound 0.2 µM): 0.152 | relative viability (ABC-1; first compound 0.002 µM): 1.34 | relative viability (ABC-1; first compound 0.006325 µM): 0.291 | relative viability (ABC-1; first compound 0.02 µM): 1.06 | relative viability (ABC-1; first compound 0.06325 µM): 0.269 | relative viability (ABC-1; first compound 0.2 µM): 0.325 | relative viability (NCI-H1666; first compound 0.002 µM): 0.983 | relative viability (NCI-H1666; first compound 0.006325 µM): 0.994 | relative viability (NCI-H1666; first compound 0.02 µM): 1.19 | relative viability (NCI-H1666; first compound 0.06325 µM): 1.03 | relative viability (NCI-H1666; first compound 0.2 µM): 0.909 | relative viability (PC-3 [JPC-3]; first compound 0.002 µM): 0.737 | relative viability (PC-3 [JPC-3]; first compound 0.006325 µM): 0.361 | relative viability (PC-3 [JPC-3]; first compound 0.02 µM): 0.491 | relative viability (PC-3 [JPC-3]; first compound 0.06325 µM): 0.381 | relative viability (PC-3 [JPC-3]; first compound 0.2 µM): 0.287 | relative viability (NCI-H2087; first compound 0.002 µM): 0.667 | relative viability (NCI-H2087; first compound 0.006325 µM): 0.609 | relative viability (NCI-H2087; first compound 0.02 µM): 0.656 | relative viability (NCI-H2087; first compound 0.06325 µM): 0.111 | relative viability (NCI-H2087; first compound 0.2 µM): 0.122 | relative viability (SK-MES-1; first compound 0.002 µM): 1.14 | relative viability (SK-MES-1; first compound 0.006325 µM): 0.931 | relative viability (SK-MES-1; first compound 0.02 µM): 1.04 | relative viability (SK-MES-1; first compound 0.06325 µM): 0.174 | relative viability (SK-MES-1; first compound 0.2 µM): 0.153 | relative viability (LXF-289; first compound 0.002 µM): 0.69 | relative viability (LXF-289; first compound 0.006325 µM): 0.707 | relative viability (LXF-289; first compound 0.02 µM): 1 | relative viability (LXF-289; first compound 0.06325 µM): 0.518 | relative viability (LXF-289; first compound 0.2 µM): 0.147 | relative viability (HCC-15; first compound 0.002 µM): 0.792 | relative viability (HCC-15; first compound 0.006325 µM): 0.805 | relative viability (HCC-15; first compound 0.02 µM): 0.942 | relative viability (HCC-15; first compound 0.06325 µM): 0.583 | relative viability (HCC-15; first compound 0.2 µM): 0.173 | relative viability (LCLC-103H; first compound 0.002 µM): 0.616 | relative viability (LCLC-103H; first compound 0.006325 µM): 0.718 | relative viability (LCLC-103H; first compound 0.02 µM): 0.661 | relative viability (LCLC-103H; first compound 0.06325 µM): 0.75 | relative viability (LCLC-103H; first compound 0.2 µM): 0.25
